Data reported in patent US20210206770A1, “Co-Crystal of an Orally Available Janus Kinase Inhibitor” (Sandoz AG, priority 2017, published 2021).

How the values were obtained:
[1] = EPAR, cited from earlier work
[2] = Dissolution testing, Experiment 1: stirring in water at room temperature; format: physicochemical; settings: 5 mg Form A or same molar amount of co-crystal stirred at room temperature in 100 ml water
From the text: Experiment 1 clearly indicated significant and faster dissolution of the barcitinib lactic acid co-crystal of the invention compared to pure cristallin baritinib form A. However, no quantitative data could be derived from this setup.

[3] = Dissolution testing, Experiment 2: photometric (310 nm) dissolution in phosphate buffer pH 6.8; format: physicochemical; settings: 50 mL phosphate buffer pH 6.8, 0.01% Tween 80, 37° C.
Method: We used this to quantify baricitinib concentrations. Light absorption was measured with a Shimadzu UV-1800 double beam photometer at 310 nm in a lcm quartz glass cuvette.
To counterbalance the acidifying effect of the lactic acid from the barcitinib lactic acid co-crystal, the experiments were performed in a phosphate buffer solution at a constant pH of 6.8 ([…]; 0.01 mol/L). Furthermore, 0.01% Tween 80 was added to the buffer solution in order to avoid potential agglomeration during the dissolution test.
Experiment 2: 20 mg of crystalline baricitinib free base Form A or 24.85 mg of the baricitinib lactic acid co-crystal of the present invention were stirred in a closed vessel in 50 mL of the buffer solution at 37° C. After 1, 5, 10, 15, 20, 30, 45 and 75 minutes filtered samples of the suspension were taken and diluted 1:4 with buffer solution to reach an absorption value within the calibration curve.

[4] = Differential scanning calorimetry (thermal stability); format: physicochemical; settings: heating rate 10 K/min, up to melting at about 168-170° C.
Method: The baricitinib lactic acid co-crystal according to the present invention was investigated by DSC, which was performed with a DSC 7 (Perkin-Elmer, Norwalk, Conn., USA) using a Pyris 2.0 software. Approximately 4±0.0005 mg sample (using a UM3 ultramicrobalance, Mettler, Greifensee, CH) were weighed into Al-Pans (25 μl) and sealed with a cover, which was perforated by a needle. Dry nitrogen was used as the purge gas (purge: 20 ml/min). Heating rate: 10 K/min.

| SMILES | solubility in 0.1 N HCl ([1]; 0.1 N HCl) | solubility in water ([1]; water) | dissolution in water [2] | concentration of dissolved baricitinib at 1 minute compared to baricitinib free base form A ([3]; 1 minute) | dissolution rate compared to baricitinib free base form A ([3]; FIG. 7) | thermal stability (DSC) [4] |
| --- | --- | --- | --- | --- | --- | --- |
| CCS(=O)(=O)N1CC(CC#N)(n2cc(-c3ncnc4[nH]ccc34)cn2)C1 [baricitinib, 2-[1-(Ethylsulfonyl)-3-[4-(7H-pyrrolo[2,3-d]pyrimidin-4-yl)-1H-pyrazol-1-yl]azetidin-3-yl]acetonitrile] | only slightly soluble | practically insoluble | – | – | – | – |
| CCS(=O)(=O)N1CC(CC#N)(n2cc(-c3ncnc4[nH]ccc34)cn2)C1 [baricitinib free base Form A, 2-[1-(Ethylsulfonyl)-3-[4-(7H-pyrrolo[2,3-d]pyrimidin-4-yl)-1H-pyrazol-1-yl]azetidin-3-yl]acetonitrile, reference compound] | – | – | no detectable dissolution | – | – | – |
| CCS(=O)(=O)N1CC(CC#N)(n2cc(-c3ncnc4[nH]ccc34)cn2)C1 [baricitinib lactic acid co-crystal] | – | – | a detectable and significant amount dissolved within minutes | three time higher | dissolved more quickly | neither phase changes nor desolvation events are detectable until the sample melts |
